Data: US8809010B2, “Method for prophylactic treatment of alzheimer's disease using inhibitors of glutaminyl cyclase and glutamate cyclases” (Probiodrug AG, priority 2003, dated 2014)

Tests used:
[1] = tested on: pGlu-Aβ(3-42) formation in HEK293 and β-TC3 cells; test: pGlu-Aβ formation in cell culture (APP or mTRH-Aβ constructs), ELISA of medium; format: cell-based
Experimental: Aβ(x-42) shall here relate to all N-terminal Aβ or truncated Aβ forms.
In the accompanying approach, plasmids encoding variants of human APP were transfected into HEK293 cells (FIG. 24-2). The processing by β- and γ-secretase yields high amounts of Aβ(3-40/42), which can be detected in the culture medium.
For analysis of Aβ in case of the cell culture studies, conditioned medium was diluted using EIA buffer (IBL, Hamburg) as before and diluted samples were subjected to ELISA analysis.

Plasma half-life = format: in vivo; details: rat
[2] = tested on: pGlu-Aβ(3-40) formation in rat cortex; test: Rat model, intracortical injection of Aβ peptides (traumatic brain injury), ELISA and immunohistochemistry; format: in vivo
Experimental: Aβ(x-40), Aβ(x-42) and Aβ (N3pE-42)-specific sandwich ELISAs (all from IBL, Hamburg) were performed according to the manufacturer's manual. Briefly, samples were diluted according to the expected concentration in the brain parts and applied onto a plate precoated with an antibody specific for the respective C-terminus. The samples were incubated overnight. The next day, the plate was washed 8 times and incubated for 1 h with a horse radish peroxidase conjugated detection antibody afterwards. Following this incubation the plate was washed 10 times and then developed with chromogen (TMB) for 30 min. After applying the stop solution the absorption at 450 nm was measured using a microplate reader (TECAN Sunrise). For preparation of standard curves the respective synthetic peptides supplied with the ELISA kits were used.
Samples for ELISA were prepared from 8 animals per group (total 32 animals). After removal of the brain, the tissue were flushed shortly with ice cold saline and placed shortly on filter paper. The cerebellum were prepared from each brain and stored separately. The brains were weighed and frozen in liquid nitrogen in 2 ml Cryo-tubes and stored at −80° C. until analysis.
For sequential separation of Aβ the following procedures were used: […]

THP-1 monocytes = test: TransWell chemotaxis assay; format: cell-based, human; details: 10 μM inhibitor, dilutions 1:3 and 1:10
Experimental: The chemotaxis assay was performed using 24 well TransWell plates with a pore size of 5 μm (Corning). Media, containing human MCP-1 variants expressed in HEK293, were used as chemoattractant. To this avail, 600 μl of the culture media of N-terminal human MCP-1 variants was applied directly or in dilutions 1:3, 1:10 and 1:30 in RPMI1640 to the lower chamber of the TransWell plate. Furthermore, undiluted media of HEK293 cells transfected with vector control were applied as negative control to the lower chamber. THP-1 cells were harvested and resuspended in RPMI1640 in a concentration of 1*10^6 cells/100 μl and applied in 100 μl aliquots to the upper chamber. Cells were allowed to migrate towards the chemoattractant for 2 h at 37° C. Subsequently, cells from the upper chamber were discarded and the lower chamber was mixed with 70 mM EDTA in PBS and incubated for 15 min at 37° C. to release cells attached to the membrane. Afterwards, cells migrated to the lower chamber were counted using a cell counter system (Schärfe System). The chemotactic index was calculated by dividing cells migrated to the stimulus from cells migrated to the negative control.

[3] = tested on: cuffed femoral artery: vascular remodeling, monocyte adhesion, MCP-1 expression; test: Cuff-induced accelerated atherosclerosis in ApoE3*Leiden mice; format: in vivo; parameters: reduction of percentage of lumen stenosis / reduction of the area of neointima formation / reduction of total adhering cells / reduction of adhering monocytes / reduction of MCP-1 expression, absolute area, media / reduction of MCP-1 expression, absolute area, intima: concentration or dose not given beside the values
Experimental: After 3 weeks the mice underwent surgical non-constricting cuff placement (day 0) and were divided into 2 groups, matched for plasma cholesterol levels.
At the time of surgery, mice were anaesthetized with an intraperitoneal injection of 5 mg/kg Dormicum, 0.5 mg/kg Domitor and 0.05 mg/kg Fentanyl. This cocktail gives complete narcosis for at least one hour and can be quickly antagonized with Antisedan 2.5 mg/kg and Anexate 0.5 mg/kg.
A longitudinal 1 cm incision is made in the internal side of the leg and the femoral artery is dissected for 3 mm length from the femoral nerve and femoral vein. The femoral artery is looped with a ligature and a non-constrictive fine bore polyethylene tubing (0.4 mm inner diameter, 0.8 mm outer diameter, length 2 mm) is longitudinally opened and sleeved loosely around the femoral artery. The cuff is closed up with two ligature knots. The skin is closed with a continued suture.
For histological analysis, animals were sacrificed either 2 days or 14 days after cuff placement. […] After perfusion, a longitudinal 2 cm incision was made in the internal side of the leg and the cuffed femoral artery was harvested as a whole and fixed overnight in 4% formaldehyde and processed to paraffin.
Adhesion of leukocytes in general and monocytes/macrophages in particular to the activated endothelium of the cuffed vessel wall was analyzed by microscopic analysis of cross sections harvested 2 days after cuff placement. The number of adhering and/or infiltrating leukocytes in general, identified as adhering cells at the luminal side of the vessel segment, and monocytes/macrophages in particular was counted and illustrated as cells per cross-section or as defined areas per cross section. Monocytes were identified by specific immunohistochemical staining by AIA31240 antibody, recognizing monocytes and macrophages.
Vessel wall remodeling accelerated atherosclerosis and neoinitima formation were analyzed morphometrically in all mice sacrificed after 14 days. A full comparison between the two groups was performed for all relevant vessel wall parameters (neointima formation, vascular circumference (i.e. outward remodelling), media thickness, lumen stenosis). Accelerated atherosclerosis was analyzed by immunohistochemical staining for macrophages and foam cells in the lesion area by AIA31240 antibody.

[4] = tested on: human MCP-1 concentration, HEK293 cells; test: Expression of human MCP-1 in HEK293 cells, MCP-1 ELISA of supernatant; format: cell-based; details: 10 μM inhibitor
Experimental: For expression of N-terminal variants of human MCP-1, HEK293 cells were cultured in collagen I coated 6-well dishes and grown until 80% confluency, transfected using Lipofectamin2000 (Invitrogen) according to manufacturer's manual and incubated in the transfection solution for 5 hours. Afterwards, cells were allowed to recover in normal growth media over night. The next day, cells were incubated another 24 h in growth media. When application of QC specific inhibitor […] was intended, cells were incubated for 24 h in absence or presence of 10 μM […]. […] Furthermore, an aliquot of cell culture supernatant was stored at −80° C. for quantification of human MCP-1 concentration using human MCP-1-ELISA (Pierce).

LNZ-308 cells = test: Aβ in conditioned medium after transient APP expression, BACE I inhibition, ELISA; format: cell-based
Experimental: (§1) The constructs are depicted in FIG. 33. The APP-encoding plasmids differed with respect to the sequence surrounding the β-secretase cleavage site, i.e. either carried the swedish mutation (KM595/596NL) or the wild-type sequence (K595M596) at the β-secretase-cleavage site. Furthermore, the constructs encoded either the London (V642I) or wild-type sequence (V642) near the γ-secretase cleavage site. The swedish mutation leads to an elevated generation of Aβ due to enhanced cleavage by the β-secretase BACE I. The London mutation mediates enhanced formation of Aβ42 peptides compared to the wild-type sequence without affecting the total Aβ generation.
(§2) In order to substantiate the role of these newly discovered enzyme activity generating the molecular precursor of pGlu-Aβ peptides, inhibitors of the known β-secretase BACE I were employed in experiments based on transient expression of the plasmid constructs outlined in FIG. 33. Similar to the observations with the APP(N3Q) constructs, N-terminally truncated peptides were generated mainly after APP-WT and APP-London expression.
(§3) Aβ(x-40), Aβ(x-42) and Aβ (N3pE-42)-specific sandwich ELISAs (all from IBL, Hamburg) were performed according to the manufacturer's manual. […] After applying the stop solution the absorption at 450 nm was measured using a microplate reader (TECAN Sunrise). […]

HEK293 cells = test: as above; format: cell-based, human
Experimental: as §1, §2, §3

| SMILES | pGlu-Aβ concentration in medium ([1]; HEK293 and β-TC3 settings) | total Aβ concentration in medium ([1]; indicator of cell viability) | half-life (Plasma half-life) [h] | pGlu-Aβ immunostaining ([2]; injected prior to Aβ(3-40)) | pGlu-Aβ after injection of Aβ(1-40) ([2]; rat, in vivo) | chemotaxis of THP-1 cells towards MCP-1 (WT) supernatant (THP-1 monocytes) | reduction of MCP-1 expression, absolute area, intima ([3]; 2 days) [%] | reduction of MCP-1 expression, absolute area, media ([3]; 2 days) [%] | reduction of adhering monocytes ([3]; 2 days) [%] | reduction of total adhering cells ([3]; 2 days) [%] | MCP-1 expression in media or neointima ([3]; 14 days) | area of the media ([3]; 14 days) | reduction of percentage of lumen stenosis ([3]; 14 days) [%] | reduction of the area of neointima formation ([3]; 14 days) [%] | remaining lumen ([3]; 14 days) | level of MCP-1 (WT) in supernatant [4] | total Aβ lowering (LNZ-308 cells) | Aβ(1-40) and Aβ(1-42) (HEK293 cells) | total Aβ40-concentration (HEK293 cells; HEK293 cells) |
| --- | --- | --- | --- | --- | --- | --- | --- | --- | --- | --- | --- | --- | --- | --- | --- | --- | --- | --- | --- |
| COc1ccc(NC(=S)NCCCn2ccnc2)cc1OC.Cl [1-(3-(1H-imidazol-1-yl)propyl)-3-(3,4-dimethoxyphenyl)thiourea hydrochloride] | significantly reduced | not reduced | < 1 | significant reduction in pGlu-Aβ immunostaining | did not result in a clear reduction of pGlu-Aβ | significantly lower chemotaxis | 40 | 41 | 67 | 45 | no reduction of MCP-1 expression | reduced | 40 | 45 | no statistically significant effect | not significantly changed | – | – | – |
| C[C@@H](NC(=O)c1cc(C(=O)N[C@@H](Cc2ccccc2)[C@H](O)CNC2CC2)cc(N(C)S(C)(=O)=O)c1)c1ccccc1 [BACE IV] | – | – | – | – | – | – | – | – | – | – | – | – | – | – | – | – | only marginal efficacy | reduced the N-terminally intact Aβ-peptides | did not influence the total Aβ40-concentration significantly |
